# Literature values, collected in patent publication US20220175800A1, “DISPERSIBLE TABLET COMPOSITION” (PTC THERAPEUTICS INC., priority 2019, published 2022).
smiles,measurement,value
"CC(=O)OCC(=O)[C@@]12N=C(C)O[C@@H]1C[C@H]1[C@@H]3CCC4=CC(=O)C=C[C@]4(C)[C@H]3[C@@H](O)C[C@@]12C [Deflazacort, (11β,16β)-21-(acetyloxy)11-hydroxy-2′-methyl-5′H-pregna-1,4-dieno[17,16-d]oxazole-3,20-dione]",Solubility in water,poorly soluble in water
